Measurements reported in PMC4234217 (ChemistryOpen, 2014).

Experiments:
human NTS1 = human NTS1 (Homo sapiens, UniProt P30989); conditions: replacement of Tyr11 by alanine; ref [7]; cited from earlier work
human NTS2 [1] = molecular target: T1, human NTS2 (Homo sapiens, UniProt O95665); conditions: replacement of Tyr11 by alanine; ref [7]; cited from earlier work
human NTS2 [2] = molecular target: T1, human NTS2; assay: Radioligand binding at human NTS2 with [3H]NT; conditions: SEM

T1 sequence (O95665 whole entry): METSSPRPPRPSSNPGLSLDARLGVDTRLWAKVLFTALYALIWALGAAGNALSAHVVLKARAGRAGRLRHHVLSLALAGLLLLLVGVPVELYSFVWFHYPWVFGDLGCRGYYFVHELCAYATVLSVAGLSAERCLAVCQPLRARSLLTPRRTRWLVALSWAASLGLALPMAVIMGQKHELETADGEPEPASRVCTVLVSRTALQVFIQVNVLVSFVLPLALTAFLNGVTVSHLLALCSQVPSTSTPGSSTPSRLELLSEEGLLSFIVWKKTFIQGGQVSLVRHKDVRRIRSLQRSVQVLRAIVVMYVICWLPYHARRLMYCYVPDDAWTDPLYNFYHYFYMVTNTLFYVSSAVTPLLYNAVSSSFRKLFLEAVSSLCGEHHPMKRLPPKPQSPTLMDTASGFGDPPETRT
Sequence of human NTS1 (P30989 whole entry): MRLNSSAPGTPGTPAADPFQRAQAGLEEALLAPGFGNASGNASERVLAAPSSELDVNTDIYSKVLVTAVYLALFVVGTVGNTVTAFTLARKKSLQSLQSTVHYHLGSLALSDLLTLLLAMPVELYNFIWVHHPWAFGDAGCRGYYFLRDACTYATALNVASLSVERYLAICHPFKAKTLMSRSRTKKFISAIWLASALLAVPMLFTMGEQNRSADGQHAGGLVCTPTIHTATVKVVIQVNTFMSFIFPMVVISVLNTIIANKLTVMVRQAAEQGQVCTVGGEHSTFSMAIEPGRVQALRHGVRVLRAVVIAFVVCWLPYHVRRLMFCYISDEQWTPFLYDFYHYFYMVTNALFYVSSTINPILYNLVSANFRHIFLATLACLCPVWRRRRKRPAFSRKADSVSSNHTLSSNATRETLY

Row | Compound | reduction of ligand affinity at NTS1 compared to NT(8–13) (human NTS1) | decrease of affinity towards NTS2 compared to NT(8–13) (human NTS2 [1]) | Ki (human NTS2 [2])
1 | [^11Ala]NT(8–13) | 5400 fold | 70 fold | 
2 | CC[C@H](C)[C@H](NC(=O)CN(CCc1ccn2nccc2c1)C(=O)[C@@H]1CCCN1C(=O)[C@H](CCCNC(=N)N)NC(=O)[C@@H](N)CCCNC(=N)N)C(=O)N[C@@H](CC(C)C)C(=O)O [compound 3, [^11N-{5-(2-Aminoethyl)pyrazolo[1,5-a]pyridine}-Gly]NT(8–13)] |  |  | 0.52 ± 0.17 µM
